In patent US20210393588A1, “READY TO USE I[…] OF BR[…] SALT THEREOF” (Zenvision Pharma LLP, priority 2018, published 2021):
Read-outs that look alike come from different tables or passages of the source.

How the values were obtained:
[1] = Storage stability of aqueous solutions of Brivaracetam; format: physicochemical; conditions: aqueous solution
Excerpt: Also degradation products in solution are formed due to oxidation, pH ranges.

[2] = cited from earlier work

## CCC[C@@H]1CC(=O)N([C@@H](CC)C(N)=O)C1 [Brivaracetam, (2S)-2-[(4R)-2-oxo-4-propyltetrahydro-1H-pyrrol-1-yl]butanamide]
[1]
  Stability during storage: partially unstable
[2]; acetone
  Solubility: freely soluble
[2]; acetonitrile
  Solubility: freely soluble
[2]; buffer (pH 1.2, 4.5, and 7.4)
  Solubility: very soluble
[2]; ethanol
  Solubility: very soluble
[2]; glacial acetic acid
  Solubility: very soluble
[2]; methanol
  Solubility: very soluble
[2]; n-hexane
  Solubility: very slightly soluble
[2]; toluene
  Solubility: soluble
[2]; water
  Solubility: very soluble
